The text below walks through data of US11999727B2 (Tango Therapeutics, Inc., priority 2020, dated 2024).

Structures are written as SMILES.

Assay [1] has as its system HAP1 MTAP-deleted cell line. Briefly: Viability assay, MTAP-deleted cell line. The format is cell-based. As to conditions: Homo sapiens, read-out: HAP1 MTAP deleted viability. The source says: Table 1 additionally indicates IC50 values in a viability assay for the MTAP-deleted cell line (column 10), indicating the effect of treatment with compound on cell survival.
In assay [2] the target is T1, PRMT5 (Homo sapiens, UniProt O14744).
T1 construct: purchased Viva (custom protein)
T1 sequence (O14744 whole entry): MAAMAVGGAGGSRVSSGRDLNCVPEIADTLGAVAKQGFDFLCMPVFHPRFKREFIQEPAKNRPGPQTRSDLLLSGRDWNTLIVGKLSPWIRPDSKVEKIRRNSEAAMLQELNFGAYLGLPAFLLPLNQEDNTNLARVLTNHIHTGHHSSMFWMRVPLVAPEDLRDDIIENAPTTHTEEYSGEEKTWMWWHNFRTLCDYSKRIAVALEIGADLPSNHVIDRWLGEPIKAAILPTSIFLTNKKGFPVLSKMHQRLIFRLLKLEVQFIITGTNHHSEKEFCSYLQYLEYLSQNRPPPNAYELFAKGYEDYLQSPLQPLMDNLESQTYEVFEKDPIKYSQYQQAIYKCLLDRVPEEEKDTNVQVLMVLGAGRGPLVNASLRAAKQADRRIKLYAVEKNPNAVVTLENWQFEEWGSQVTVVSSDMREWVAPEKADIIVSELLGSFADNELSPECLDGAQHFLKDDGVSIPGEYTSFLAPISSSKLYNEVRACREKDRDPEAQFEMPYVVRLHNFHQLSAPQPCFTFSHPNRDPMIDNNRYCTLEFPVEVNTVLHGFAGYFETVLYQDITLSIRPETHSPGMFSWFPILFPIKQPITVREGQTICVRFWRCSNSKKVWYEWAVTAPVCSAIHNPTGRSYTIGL
T1 sequence (Q9BQA1 whole entry partner): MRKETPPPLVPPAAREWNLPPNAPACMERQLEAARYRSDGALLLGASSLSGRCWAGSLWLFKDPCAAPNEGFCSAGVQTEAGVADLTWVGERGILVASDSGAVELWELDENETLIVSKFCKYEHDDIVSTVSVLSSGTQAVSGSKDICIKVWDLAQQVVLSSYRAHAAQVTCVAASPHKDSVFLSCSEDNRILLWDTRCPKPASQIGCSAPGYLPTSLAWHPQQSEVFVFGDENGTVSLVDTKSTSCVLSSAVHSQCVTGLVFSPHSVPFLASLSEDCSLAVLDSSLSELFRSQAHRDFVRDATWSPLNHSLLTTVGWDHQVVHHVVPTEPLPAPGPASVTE
Briefly: PRMT5 biochemical IC50 assay with SAM as cofactor. As to conditions: PRMT5, SAM as cofactor; read-out: SAM IC50.

Assay [3] relates to HAP1 MTAP-intact cell line. Put plainly: SDMA in-cell western assay, HAP1 MTAP-intact. Type of assay: cell-based. The note with it: Homo sapiens, HAP1, SDMA in-cell western, HAP1 MTAP-intact; read-out: MTAP HAP1 intact IC50. The gist of the method:
(§1)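 MTAP-null vs endogenous-MTAP HAP1 isogenic cells; in-cell western SDMA readout; IC50 per line.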

For assay [4], the target named is T1, PRMT5. Put plainly: PRMT5 biochemical IC50 assay with MTA as cofactor. The note with it: PRMT5, MTA as cofactor; read-out: MTA IC50.
In assay [5] the test system is HAP1 MTAP-deleted cell line. Briefly: SDMA in-cell western assay, HAP1 MTAP-deleted. Type of assay: cell-based. As to conditions: for IC50: Homo sapiens, HAP1, SDMA in-cell western, HAP1 MTAP-deleted; for MTAP intact/deleted ratio: SDMA in-cell western. The gist of the method:
as §1

In assay [6] the target is T1, PRMT5. Briefly: PRMT5 biochemical IC50 assay with no cofactor. The note with it: PRMT5, no cofactor. The source says:
Table 1 indicates IC50 values (μM) against PRMT5 for exemplary compounds in the presence of SAM as cofactor, with no cofactor, and with MTA as cofactor, respectively (columns 4-6). […] Ki values can be calculated from the IC50 values as described in the Examples section. As detailed in the Examples section, for the assay performed in the presence of SAM, IC50=Ki×1.5 (Ki=IC50/1.5).

[7] abbreviates: HAP1, viability assay, MTAP-deleted cell line.
[8] abbreviates: read-out: HAP1 MTAP deleted IC50.
Where [9] appears, read: IC50 ratio HAP1 MTAP-intact vs HAP1 MTAP-deleted.
Where [10] appears, read: HAP1, viability, HAP1 MTAP-deleted cell line.
[11] abbreviates: read-out: HAP 1 MTAP deleted IC50.
Setting [12] is: IC50 ratio HAP1 MTAP-intact / HAP1 MTAP-deleted.
Setting [13] is: read-out: No Cofactor/ rel IC50.

Turning to `CCc1cc(NC(=O)C(=O)N2C[C@@H](C)CC[C@@H]2c2ccc(N3CCN(C(C)C)CC3)c(C)c2)cnc1N` (racemic) [Compound 1163, N-(6-Amino-5-ethyl-3-pyridyl)-2-oxo-2-[rac-(2R,5S)-2-[4-(4-isopropylpiperazin-1-yl)-3-methyl-phenyl]-5-methyl-1-piperidyl]acetamide], the IC50 was less than 1000 nM in assay [1] (setting [7]); less than 50 nM in assay [2]; 100 to 1000 nM in assay [3]; less than 50 nM in assay [4]; less than 100 nM in assay [5] (setting [8]); less than 50 nM in assay [6] (read-out: No Cofactor/rel IC50). Also, the MTAP intact/deleted ratio entry in assay [5] (setting [9]) was “A (an IC50 ratio greater than or equal to 10 fold)”.

`CCc1cc(NC(=O)C(=O)N2C[C@@H](C)CC[C@@H]2c2ccc(N3C[C@H]4CCN(C)C[C@H]4C3)cc2)cnc1N` (racemic) [Compound 1167, N-(6-amino-5-ethyl-3-pyridyl)-2-oxo-2-[rac-(2R,5S)-5-methyl-2-[4-[rac-(3aS,7aS)-5-methyl-3,3a,4,6,7,7a-hexahydro-1H-pyrrolo[3,4-c]pyridin-2-yl]phenyl]-1-piperidyl]acetamide]: the IC50 is less than 1000 nM in assay [1] (setting [7]); less than 50 nM in assay [2]; 100 to 1000 nM in assay [3]; less than 50 nM in assay [4]; less than 100 nM in assay [5] (setting [8]); less than 50 nM in assay [6] (read-out: No Cofactor/rel IC50). In assay [5] (setting [9]), the MTAP intact/deleted ratio entry was “A (an IC50 ratio greater than or equal to 10 fold)”.

`COc1ncc(NC(=O)C(=O)N2C[C@@H](C)CC[C@@H]2c2ccc3sc([C@H]4CCN(C)C[C@@H]4C)nc3c2)cc1C(N)=O` (racemic) [Compound 1168, 2-methoxy-5-[[2-oxo-2-[rac-(2R,5S)-5-methyl-2-[2-[rac-(3R,4S)-1,3-dimethyl-4-piperidyl]-1,3-benzothiazol-5-yl]-1-piperidyl]acetyl]amino]pyridine-3-carboxamide]: the IC50 is less than 1000 nM in assay [1] (setting [7]); less than 50 nM in assay [2]; less than 100 nM in assay [3]; less than 50 nM in assay [4]; less than 100 nM in assay [5] (setting [8]); less than 50 nM in assay [6] (read-out: No Cofactor/rel IC50). Moreover, the MTAP intact/deleted ratio entry in assay [5] (setting [9]) is “A (an IC50 ratio greater than or equal to 10 fold)”.

As to `CCc1cc(NC(=O)C(=O)N2C[C@@H](C)[C@H](OC)C[C@@H]2c2cccc(OCCN(C)C)c2)cnc1N` (racemic) [Compound 1172, N-(6-amino-5-ethyl-3-pyridyl)-2-oxo-2-[rac-(2R,4R,5R)-2-[3-[2-(dimethylamino)ethoxy]phenyl]-4-methoxy-5-methyl-1-piperidyl]acetamide], the IC50 in assay [1] (setting [7]) was less than 1000 nM; in assay [2], 50 to 500 nM; in assay [3], 100 to 1000 nM; in assay [4], less than 50 nM; in assay [5] (setting [8]), less than 100 nM; in assay [6] (read-out: No Cofactor/rel IC50), 50 to 500 nM. Moreover, the MTAP intact/deleted ratio result in assay [5] (setting [9]) is given as “A (an IC50 ratio greater than or equal to 10 fold)”.

Regarding `CCc1nc2cc([C@@H]3CC[C@@H](C)CN3C(=O)C(=O)Nc3cnc(N)c(C)c3)ccc2s1` (racemic) [Compound 1184, N-(6-amino-5-methylpyridin-3-yl)-2-(2-(2-ethylbenzo[d]thiazol-5-yl)-5-methylpiperidin-1-yl)-2-oxoacetamide], the IC50 in assay [1] (setting [7]) was less than 1000 nM; in assay [2], 50 to 500 nM; in assay [3], 100 to 1000 nM; in assay [4] it was 50 to 500 nM; in assay [5] (setting [8]), less than 100 nM; in assay [6] (read-out: No Cofactor/rel IC50), 50 to 500 nM. Moreover, the MTAP intact/deleted ratio entry in assay [5] (setting [9]) is on record as “A (an IC50 ratio greater than or equal to 10 fold)”.

Consider `COc1ncc(NC(=O)C(=O)N2C[C@@H](C)CC[C@@H]2c2ccc3sc([C@H]4CCN(C)C[C@H]4C)nc3c2)cc1C(N)=O` (racemic) [Compound 1185, 2-methoxy-5-[[2-oxo-2-[rac-(2R,5S)-5-methyl-2-[2-[rac-(3S,4S)-1,3-dimethyl-4-piperidyl]-1,3-benzothiazol-5-yl]-1-piperidyl]acetyl]amino]pyridine-3-carboxamide], for which the IC50 in assay [1] (setting [7]) was less than 1000 nM; in assay [2], less than 50 nM; in assay [3], less than 100 nM; in assay [4], less than 50 nM; in assay [5] (setting [8]), less than 100 nM; in assay [6] (read-out: No Cofactor/rel IC50) it was less than 50 nM. Also, the MTAP intact/deleted ratio result in assay [5] (setting [9]) is given as “A (an IC50 ratio greater than or equal to 10 fold)”.

`CCc1cc(NC(=O)C(=O)N2C[C@@H](C)CC[C@@H]2c2ccc(N3CCN(C)CC3)cc2)cnc1N` (racemic) [Compound 1209, rac-N-(6-Amino-5-ethyl-3-pyridyl)-2-[(2S,5R)-5-methyl-2-[4-(4-methylpiperazin-1-yl)phenyl]-1-piperidyl]-2-oxo-acetamide]: the IC50 was less than 1000 nM in assay [1] (setting [7]); 50 to 500 nM in assay [2]; 100 to 1000 nM in assay [3]; less than 50 nM in assay [4]; less than 100 nM in assay [5] (setting [8]); 50 to 500 nM in assay [6] (read-out: No Cofactor/rel IC50). In assay [5] (setting [9]), the MTAP intact/deleted ratio result was “A (an IC50 ratio greater than or equal to 10 fold)”.

With `Cc1cc(NC(=O)C(=O)N2C[C@H](C)CC[C@H]2c2cccc(N3CCN(C)CC3)c2)cnc1N` (racemic) [Compound 1223, N-(6-amino-5-methylpyridin-3-yl)-2-(5-methyl-2-(3-(4-methylpiperazin-1-yl)phenyl)piperidin-1-yl)-2-oxoacetamide], the IC50 in assay [1] (setting [7]) is less than 1000 nM; in assay [2] it was 50 to 500 nM; in assay [3], 100 to 1000 nM; in assay [4] it was less than 50 nM; in assay [5] (setting [8]), less than 100 nM; in assay [6] (read-out: No Cofactor/rel IC50), 50 to 500 nM. In addition, the MTAP intact/deleted ratio result in assay [5] (setting [9]) was “A (an IC50 ratio greater than or equal to 10 fold)”.

For `CCc1cc(NC(=O)C(=O)N2CC(C)CCC2c2ccc3sc(C4CCN(C)CC4C)nc3c2)cnc1N` (racemic) [Compound 1227, N-(6-amino-5-ethyl-3-pyridyl)-2-oxo-2-[rac-(2R,5S)-5-methyl-2-[2-[rac-(3S,4R)-1,3-dimethyl-4-piperidyl]-1,3-benzothiazol-5-yl]-1-piperidyl]acetamide], the IC50 in assay [1] (setting [7]) was less than 1000 nM; in assay [2], less than 50 nM; in assay [3], less than 100 nM; in assay [4], less than 50 nM; in assay [5] (setting [8]) it was less than 100 nM; in assay [6] (read-out: No Cofactor/rel IC50), less than 50 nM. Also, in assay [5] (setting [9]), the MTAP intact/deleted ratio result is recorded as “A (an IC50 ratio greater than or equal to 10 fold)”.

On to `Cc1cc(NC(=O)C(=O)N2C[C@H](C)CC[C@H]2c2ccc(CCN(C)C)cc2)cnc1N` (racemic) [Compound 1233, N-(6-amino-5-methyl-3-pyridyl)-2-[2-[4-[2-(dimethylamino)ethyl]phenyl]-5-methyl-1-piperidyl]-2-oxo-acetamide], for which the IC50 in assay [1] (setting [7]) was less than 1000 nM; in assay [2] it was 50 to 500 nM; in assay [3], 100 to 1000 nM; in assay [4], less than 50 nM; in assay [5] (setting [8]), less than 100 nM; in assay [6] (read-out: No Cofactor/rel IC50), 50 to 500 nM. In addition, the MTAP intact/deleted ratio result in assay [5] (setting [9]) is listed as “B (an IC50 ratio greater than or equal to 3 fold but lower than 10 fold)”.

`CCc1cc(NC(=O)C(=O)N2C[C@@H](C)CC[C@@H]2c2ccc3nn(C4CN(C)C4)cc3c2)cnc1N` (racemic) [Compound 1239, N-(6-Amino-5-ethyl-3-pyridyl)-2-oxo-2-[rac-(2R,5S)-5-methyl-2-[2-(1-methylazetidin-3-yl)indazol-5-yl]-1-piperidyl]acetamide]: the IC50 was less than 1000 nM in assay [1] (setting [10]); 50 to 500 nM in assay [2]; 100 to 1000 nM in assay [3]; less than 50 nM in assay [4]; less than 100 nM in assay [5] (setting [11]); less than 50 nM in assay [6] (setting [13]). The “MTAP intact/deleted ratio” value in assay [5] (setting [12]) is “A (an IC50 ratio greater than or equal to 10 fold)”.

With `COc1ncc(NC(=O)C(=O)N2C[C@@H](C)CC[C@@H]2c2ccc3sc([C@H]4CCN(C)C4)nc3c2)cc1C(N)=O` (racemic) [Compound 1260, 2-methoxy-5-[[2-oxo-2-[rac-(2R,5S)-5-methyl-2-[2-[rac-(3S)-1-methylpyrrolidin-3-yl]-1,3-benzothiazol-5-yl]-1-piperidyl]acetyl]amino]pyridine-3-carboxamide], the IC50 in assay [1] (setting [10]) is less than 1000 nM; in assay [2], less than 50 nM; in assay [3], less than 100 nM; in assay [4], less than 50 nM; in assay [5] (setting [11]) it was less than 100 nM; in assay [6] (setting [13]), less than 50 nM. For the same compound, in assay [5] (setting [12]), the “MTAP intact/deleted ratio” value is recorded as “A (an IC50 ratio greater than or equal to 10 fold)”.
